From US11034650B2, “Compounds useful for treating a Mannheimia haemolytica or Histophilus somni infection” (Intervet Inc., priority 2016, dated 2021)
Converted amounts (≈) assume the structure as drawn.

Experiments:
Assay type in all cases: cell-based
[1] = system: Mannheimia haemolytica MH 12587 (1071, BRD field isolate, macrolide-resistance: erm+, E+); assay: MIC, broth-microdilution (CLSI VET01-A4), strain MH 12587; conditions: Mannheimia haemolytica strain MH 12587, broth-microdilution; unit assumed
How it was run: (§1)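 The compound was titrated in twofold steps in microdilution trays. Absence of turbidity, checked without instruments, marked the MIC at the lowest such concentration.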

[2] = system: Pasteurella multocida PM 6391 (ATCC 43137, reference strain); assay: MIC, broth-microdilution (CLSI VET01-A4), strain PM 6391; conditions: Pasteurella multocida strain PM 6391, broth-microdilution; unit assumed
How it was run: as §1

[3] = system: Pasteurella multocida PM 10775 (080130003051, BRD field isolate); assay: MIC, broth-microdilution (CLSI VET01-A4), strain PM 10775; conditions: Pasteurella multocida strain PM 10775, broth-microdilution; unit assumed
How it was run: as §1

[4] = system: Pasteurella multocida PM 12080 (IV102277-0093, BRD field isolate); assay: MIC, broth-microdilution (CLSI VET01-A4), strain PM 12080; conditions: Pasteurella multocida strain PM 12080, broth-microdilution; unit assumed
How it was run: as §1

[5] = system: Mannheimia haemolytica MH 13093 (XB0472-6014.1, BRD field isolate); assay: MIC, broth-microdilution (CLSI VET01-A4), strain MH 13093; conditions: Mannheimia haemolytica strain MH 13093, broth-microdilution; unit assumed
How it was run: as §1

[6] = system: Mannheimia haemolytica MH 13065 (XB0446-6003.9, BRD field isolate); assay: MIC, broth-microdilution (CLSI VET01-A4), strain MH 13065; conditions: Mannheimia haemolytica strain MH 13065, broth-microdilution; unit assumed
How it was run: as §1

[7] = system: Mannheimia haemolytica MH 6374 (ATCC 33396, reference strain); assay: MIC, broth-microdilution (CLSI VET01-A4), strain MH 6374; conditions: Mannheimia haemolytica strain MH 6374, broth-microdilution; unit assumed
How it was run: as §1

[8] = system: Mannheimia haemolytica MH 10720 (154, BRD field isolate); assay: MIC, broth-microdilution (CLSI VET01-A4), strain MH 10720; conditions: Mannheimia haemolytica strain MH 10720, broth-microdilution; unit assumed
How it was run: as §1

[9] = system: Mannheimia haemolytica MH 6357 (M7/2, reference strain, cattle infection strain); assay: MIC, broth-microdilution (CLSI VET01-A4), strain MH 6357; conditions: Mannheimia haemolytica strain MH 6357, broth-microdilution; unit assumed
How it was run: as §1

[10] = system: Pasteurella multocida PM 6267 (P 2225 (L386), reference strain, mouse infection strain); assay: MIC, broth-microdilution (CLSI VET01-A4), strain PM 6267; conditions: Pasteurella multocida strain PM 6267, broth-microdilution; unit assumed
How it was run: as §1

Compound | MIC MH 12587 [1] [µg/mL] | MIC PM 6391 [2] [µg/mL] | MIC PM 10775 [3] [µg/mL] | MIC PM 12080 [4] [µg/mL] | MIC MH 13093 [5] [µg/mL] | MIC MH 13065 [6] [µg/mL] | MIC MH 6374 [7] [µg/mL] | MIC MH 10720 [8] [µg/mL] | MIC MH 6357 [9] [µg/mL] | MIC PM 6267 [10] [µg/mL]
CC(C)(C(NC(=O)c1ccc(C#Cc2ccc(CNCc3ccc(Cl)cc3)cc2)cc1)C(=O)NO)[N+](=O)[O-] (centres unmarked) [Compound 277] | 3.1 (≈ 5.79 µM) | 0.8 (≈ 1.5 µM) | ≤ 0.1 | 0.4 (≈ 0.748 µM) | 1.6 (≈ 2.99 µM) | 1.6 (≈ 2.99 µM) | 1.6 (≈ 2.99 µM) | 0.4 (≈ 0.748 µM) | 1.6 (≈ 2.99 µM) | 0.4 (≈ 0.748 µM)
CSC(C)(C)[C@H](NC(=O)c1ccc(C#Cc2ccc(CNCc3ncccn3)nc2)cc1)C(=O)NO [Compound 346] | 12.5 (≈ 24.8 µM) | 3.1 (≈ 6.14 µM) | 0.4 (≈ 0.793 µM) | 1.6 (≈ 3.17 µM) | 12.5 (≈ 24.8 µM) | 6.3 (≈ 12.5 µM) | 6.3 (≈ 12.5 µM) | 0.8 (≈ 1.59 µM) | 6.3 (≈ 12.5 µM) | 6.3 (≈ 12.5 µM)
CC(C)([C@H](NC(=O)c1ccc(C#Cc2ccc(CNCc3cccnc3)cc2)cc1)C(=O)NO)S(C)(=O)=O [C.267] | 1.6 (≈ 2.99 µM) | ≤ 0.1 | ≤ 0.1 | ≤ 0.1 | 0.8 (≈ 1.5 µM) | 0.8 (≈ 1.5 µM) | 0.4 (≈ 0.748 µM) | ≤ 0.1 | 0.8 (≈ 1.5 µM) | ≤ 0.1
CC(C)[C@H](NC(=O)c1ccc(C#Cc2ccc(CNCc3ccco3)cc2)cc1)C(=O)NO [Compound 170] | 0.4 (≈ 0.898 µM) | 0.4 (≈ 0.898 µM) | ≤ 0.1 | 0.2 (≈ 0.449 µM) | 0.4 (≈ 0.898 µM) | 0.4 (≈ 0.898 µM) | 0.4 (≈ 0.898 µM) | ≤ 0.1 | 0.2 (≈ 0.449 µM) | ≤ 0.1
CC(C)(O)[C@H](NC(=O)c1ccc(C#Cc2ccc(CNC3CCCC3)cc2)cc1)C(=O)NO [Compound 227] | 25 (≈ 55.6 µM) | 0.8 (≈ 1.78 µM) | 0.2 (≈ 0.445 µM) | 0.8 (≈ 1.78 µM) | 12.5 (≈ 27.8 µM) | 6.3 (≈ 14 µM) | 12.5 (≈ 27.8 µM) | 1.6 (≈ 3.56 µM) | 12.5 (≈ 27.8 µM) | 0.4 (≈ 0.89 µM)
CC(C)(O)[C@H](NC(=O)c1ccc(C#Cc2ccc(CNCc3ccccn3)nc2)cc1)C(=O)NO [Compound 331] | 6.3 (≈ 13.3 µM) | 1.6 (≈ 3.38 µM) | 0.4 (≈ 0.845 µM) | 1.6 (≈ 3.38 µM) | 6.3 (≈ 13.3 µM) | 3.1 (≈ 6.55 µM) | 3.1 (≈ 6.55 µM) | 0.4 (≈ 0.845 µM) | 1.6 (≈ 3.38 µM) | 3.1 (≈ 6.55 µM)
CC(C)(C(NC(=O)c1ccc(C#Cc2ccc(CNCC(F)(F)F)cc2)cc1)C(=O)NO)[N+](=O)[O-] (centres unmarked) [Compound 288] | 0.8 (≈ 1.62 µM) | ≤ 0.1 | ≤ 0.1 | ≤ 0.1 | 0.8 (≈ 1.62 µM) | 0.4 (≈ 0.812 µM) | 0.8 (≈ 1.62 µM) | ≤ 0.1 | 0.4 (≈ 0.812 µM) | 0.4 (≈ 0.812 µM)
COCC(C)NCc1ccc(C#Cc2ccc(C(=O)N[C@@H](CO)C(=O)NO)cc2)cc1 (some centres unmarked) [Compound 164] | 25 (≈ 58.8 µM) | 1.6 (≈ 3.76 µM) | ≤ 0.1 | 1.6 (≈ 3.76 µM) | 25 (≈ 58.8 µM) | 12.5 (≈ 29.4 µM) | 12.5 (≈ 29.4 µM) | 1.6 (≈ 3.76 µM) | 6.3 (≈ 14.8 µM) | 0.4 (≈ 0.94 µM)
CC(C)[C@H](NC(=O)c1ccc(C#Cc2ccc(CNCc3ccccn3)cc2)cc1)C(=O)NO [Compound 169] | 1.6 (≈ 3.5 µM) | 0.4 (≈ 0.876 µM) | ≤ 0.1 | 0.4 (≈ 0.876 µM) | 0.8 (≈ 1.75 µM) | 0.8 (≈ 1.75 µM) | 0.8 (≈ 1.75 µM) | 0.2 (≈ 0.438 µM) | 0.4 (≈ 0.876 µM) | ≤ 0.1
CC(C)([C@H](NC(=O)c1ccc(C#Cc2ccc(CNC3CCCC3)cc2)cc1)C(=O)NO)S(C)(=O)=O [Compound 264] | 12.5 (≈ 24.4 µM) | 0.8 (≈ 1.56 µM) | ≤ 0.1 | 0.4 (≈ 0.782 µM) | 6.3 (≈ 12.3 µM) | 6.3 (≈ 12.3 µM) | 12.5 (≈ 24.4 µM) | 1.6 (≈ 3.13 µM) | 12.5 (≈ 24.4 µM) | 0.2 (≈ 0.391 µM)
CC(C)(O)[C@H](NC(=O)c1ccc(C#Cc2ccc(CNC3CCC3)cc2)cc1)C(=O)NO [Compound 226] | 12.5 (≈ 28.7 µM) | 0.4 (≈ 0.918 µM) | ≤ 0.1 | 0.4 (≈ 0.918 µM) | 6.3 (≈ 14.5 µM) | 3.1 (≈ 7.12 µM) | 3.1 (≈ 7.12 µM) | 0.8 (≈ 1.84 µM) | 3.1 (≈ 7.12 µM) | ≤ 0.1
